The values below come from patent publication US20250270180A1, “MEK INHIBITORS AND THERAPEUTIC USES THEREOF” (Immuneering Corporation, priority 2020, published 2025).

As usually defined, the IC50 is the midpoint of a concentration-inhibition curve. Higher therefore signals lower potency.

Data set [1] in a line: Plasma stability, beagle dog. The format is in vitro ADME. The conditions noted are these: 2 μM.
Data set [2] can be described thus: Plasma stability, human. It counts as in vitro ADME. The settings on record: 2 μM.
Data set [3] deals with T1, CYP450 2C8 (Homo sapiens, UniProt P10632).
T1 sequence (P10632 1-490): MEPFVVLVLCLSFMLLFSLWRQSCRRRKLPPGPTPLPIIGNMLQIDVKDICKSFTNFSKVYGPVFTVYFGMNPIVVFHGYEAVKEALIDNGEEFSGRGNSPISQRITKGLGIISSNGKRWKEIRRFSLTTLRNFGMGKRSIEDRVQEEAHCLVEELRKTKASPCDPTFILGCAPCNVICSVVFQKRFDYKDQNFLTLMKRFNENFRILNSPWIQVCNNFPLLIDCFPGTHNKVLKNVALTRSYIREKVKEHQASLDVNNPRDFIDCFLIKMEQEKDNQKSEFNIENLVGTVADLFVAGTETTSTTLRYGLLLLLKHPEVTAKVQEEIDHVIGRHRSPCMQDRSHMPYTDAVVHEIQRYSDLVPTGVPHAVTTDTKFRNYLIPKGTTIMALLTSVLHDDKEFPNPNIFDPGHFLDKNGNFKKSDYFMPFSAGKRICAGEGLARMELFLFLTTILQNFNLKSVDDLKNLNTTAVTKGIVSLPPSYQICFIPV
In words: CYP450 panel, 2C8. The settings on record: 10 μM; substrate amodiaquine.

Data set [4] has as its target hERG Channel (Homo sapiens, UniProt Q12809). In words: in vitro.
The nature of data set [5]: Microsome stability, CD-1 mouse. The settings on record: microsomes, 2 μM.
The target of data set [6] is CYP450 2D6 (Homo sapiens, UniProt P10635). In words: CYP450 panel, 2D6. The conditions noted are these: 10 μM; substrate dextromethophan.
The target of data set [7] is CYP450 2C9 (Homo sapiens, UniProt P11712). In words: CYP450 panel, 2C9. The settings on record: 10 μM; substrate Diclofenac.
Data set [8] concerns the target T2, CYP450 2B6 (Homo sapiens, UniProt P20813).
T2 sequence (P20813 1-491): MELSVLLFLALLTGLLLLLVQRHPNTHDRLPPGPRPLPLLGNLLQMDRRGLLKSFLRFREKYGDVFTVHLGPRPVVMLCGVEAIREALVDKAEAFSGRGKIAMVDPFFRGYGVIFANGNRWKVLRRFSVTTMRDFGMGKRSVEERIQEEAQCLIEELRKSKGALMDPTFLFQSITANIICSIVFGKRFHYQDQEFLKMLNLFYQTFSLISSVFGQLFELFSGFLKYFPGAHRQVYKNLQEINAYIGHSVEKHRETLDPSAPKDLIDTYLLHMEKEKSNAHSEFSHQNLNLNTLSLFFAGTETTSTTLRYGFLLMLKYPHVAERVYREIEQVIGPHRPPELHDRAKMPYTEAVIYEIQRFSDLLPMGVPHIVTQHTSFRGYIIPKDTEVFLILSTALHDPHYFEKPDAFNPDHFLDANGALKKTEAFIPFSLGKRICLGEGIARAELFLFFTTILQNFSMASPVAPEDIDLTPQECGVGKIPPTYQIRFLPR
In words: CYP450 panel, 2B6. The conditions noted are these: 10 μM; substrate bupropion.

A short description of data set [9]: Microsome stability, beagle dog. The conditions noted are these: microsomes, 2 μM. The format is in vitro ADME.
The target in data set [10] is T3, CYP450 1A2 (Homo sapiens, UniProt P05177).
T3 sequence (P05177 1-516): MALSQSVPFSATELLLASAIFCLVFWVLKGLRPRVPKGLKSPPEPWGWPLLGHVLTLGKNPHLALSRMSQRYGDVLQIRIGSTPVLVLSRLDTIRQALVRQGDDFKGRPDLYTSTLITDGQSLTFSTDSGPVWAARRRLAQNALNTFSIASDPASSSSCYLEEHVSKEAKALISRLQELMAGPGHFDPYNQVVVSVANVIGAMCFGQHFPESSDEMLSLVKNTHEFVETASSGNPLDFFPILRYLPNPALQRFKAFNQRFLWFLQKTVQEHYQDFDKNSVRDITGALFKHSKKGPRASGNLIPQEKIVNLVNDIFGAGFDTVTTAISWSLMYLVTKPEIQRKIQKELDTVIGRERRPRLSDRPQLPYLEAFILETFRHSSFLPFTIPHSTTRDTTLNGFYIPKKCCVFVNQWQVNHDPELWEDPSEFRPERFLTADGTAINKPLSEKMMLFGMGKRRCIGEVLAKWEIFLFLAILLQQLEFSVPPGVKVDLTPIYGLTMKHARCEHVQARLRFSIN
In words: CYP450 panel, 1A2. The settings on record: 10 μM; substrate phenacetin. The format is in vitro ADME.

Data set [11] deals with CYP450 3A4 (Homo sapiens, UniProt P08684). In words: CYP450 panel, 3A4. The settings on record: 10 μM.
The nature of data set [12]: Microsome stability, human. The conditions noted are these: microsomes, 2 μM. The format is in vitro ADME.
The nature of data set [13]: Plasma stability, CD-1 mouse. The format is in vitro ADME. The conditions noted are these: 2 μM.
In data set [14] the target is CYP450 2C19 (Homo sapiens, UniProt P33261). In words: CYP450 panel, 2C19. The settings on record: 10 μM; substrate mephenytoin.
Data set [15] deals with A549 pERK. In words: A549-pERK, 2 h (quantitative Western, Jess). It counts as cell-based. The conditions noted are these: Homo sapiens, A549, 2 h, phospho:total ratio normalized to DMSO control; for activity at 0.01 µM: 10 nM. The method in brief: (§1)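 Cells treated in duplicate for 2 h with compound, lysed and protein-normalised (1 mg/mL pERK, 1.5 mg/mL pMEK). Quantitative capillary Western; phospho/total protein ratio normalised to DMSO.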

The test system of data set [16] is A549 (KRAS G12S) pERK: total ERK. In words: Phospho-ERK screen in A549 (KRAS G12S). The format is cell-based. The settings on record: 10 μM for 2 hours; for activity at 10 µM: Homo sapiens, A549, 2 h, read-out: pERK: total ERK (% relative to vehicle). The protocol: Materials and Methods: A549 or A375 cells were seeded in 6-well plates at an appropriate seeding density on day 0. On day 2 or 3, after checking the health and confluency of cells, the media was aspirated and replaced with 1 mL media containing a predetermined concentration of compound and incubated for 2 hours. After 2 hours, the media was aspirated, and the cells washed 2 times with cold PBS. Cells were lysed on ice, with 50 uL 1×CST lysis buffer+1 mM PMSF for 5 minutes. After 5 minutes, cells were removed using a scraper and transferred to cold 1.5 mL tubes, and centrifuged for 10 min, 4° C., 14,000×g. Supernatant was gently removed and snap frozen in liquid nitrogen. Protein concentration of the lysate was determined using Bradford Reagent (analyzed using SpectraMax M2E) and diluted to 1 mg/mL or pERK or 1.5 mg/mL for pMEK analysis. Cell lysates were then analyzed for phosphor-ERK/total-ERK levels on a Jess system (ProteinSimple; Cat #JS3346) using the following antibodies: tERK1/2 (CST 4696; 1:50) and pERK1/2 (CST 4377; 1:50). For pMEK/tMEK, the following antibodies were used: tMEK1/2 (CST 4694; 1:15) and pMEK1/2 (CST 9154; 1:400). All dilutions were in Milk-free antibody diluent.
The results of a phospho-ERK Screen in A549 (KRAS G12S) study is described in Table 7, 7A, 7B, and 8 below.

In data set [17] the test system is A549 CRAF BP (MEK phosphorylation). In words: A549-CRAF BP 100 nM, 2 h (pMEK). It counts as cell-based. The settings on record: Homo sapiens, A549, 2 h, phospho:total ratio normalized to DMSO control. The method in brief:
as §1

Sequence of CYP450 3A4 (P08684 whole entry): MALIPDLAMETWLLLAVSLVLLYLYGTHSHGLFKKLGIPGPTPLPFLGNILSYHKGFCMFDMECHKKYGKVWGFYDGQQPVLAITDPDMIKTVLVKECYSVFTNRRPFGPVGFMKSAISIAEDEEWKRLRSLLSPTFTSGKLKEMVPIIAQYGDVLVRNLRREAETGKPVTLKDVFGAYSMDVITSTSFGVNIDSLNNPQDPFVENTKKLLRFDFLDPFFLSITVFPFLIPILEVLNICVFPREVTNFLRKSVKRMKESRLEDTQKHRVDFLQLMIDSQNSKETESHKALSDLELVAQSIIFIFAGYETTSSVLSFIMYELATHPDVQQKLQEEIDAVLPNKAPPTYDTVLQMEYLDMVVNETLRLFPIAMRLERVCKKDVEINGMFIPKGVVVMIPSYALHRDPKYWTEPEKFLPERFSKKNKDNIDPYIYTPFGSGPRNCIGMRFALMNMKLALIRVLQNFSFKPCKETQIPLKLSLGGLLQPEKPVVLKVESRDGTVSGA
Sequence of CYP450 2C19 (P33261 whole entry): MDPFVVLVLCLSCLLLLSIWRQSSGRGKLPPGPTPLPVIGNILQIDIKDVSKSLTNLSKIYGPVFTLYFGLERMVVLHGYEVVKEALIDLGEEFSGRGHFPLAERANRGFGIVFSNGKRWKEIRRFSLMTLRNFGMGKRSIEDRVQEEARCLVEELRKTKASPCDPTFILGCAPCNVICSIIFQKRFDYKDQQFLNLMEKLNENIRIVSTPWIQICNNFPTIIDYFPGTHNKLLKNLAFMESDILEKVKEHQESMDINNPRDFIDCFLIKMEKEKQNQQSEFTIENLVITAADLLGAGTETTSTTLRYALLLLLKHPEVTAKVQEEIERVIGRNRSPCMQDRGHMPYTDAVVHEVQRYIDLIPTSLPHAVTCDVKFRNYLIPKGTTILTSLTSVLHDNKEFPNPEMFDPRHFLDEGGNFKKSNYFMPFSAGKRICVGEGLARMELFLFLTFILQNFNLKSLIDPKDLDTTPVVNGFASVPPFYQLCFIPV
Sequence of CYP450 2D6 (P10635 whole entry): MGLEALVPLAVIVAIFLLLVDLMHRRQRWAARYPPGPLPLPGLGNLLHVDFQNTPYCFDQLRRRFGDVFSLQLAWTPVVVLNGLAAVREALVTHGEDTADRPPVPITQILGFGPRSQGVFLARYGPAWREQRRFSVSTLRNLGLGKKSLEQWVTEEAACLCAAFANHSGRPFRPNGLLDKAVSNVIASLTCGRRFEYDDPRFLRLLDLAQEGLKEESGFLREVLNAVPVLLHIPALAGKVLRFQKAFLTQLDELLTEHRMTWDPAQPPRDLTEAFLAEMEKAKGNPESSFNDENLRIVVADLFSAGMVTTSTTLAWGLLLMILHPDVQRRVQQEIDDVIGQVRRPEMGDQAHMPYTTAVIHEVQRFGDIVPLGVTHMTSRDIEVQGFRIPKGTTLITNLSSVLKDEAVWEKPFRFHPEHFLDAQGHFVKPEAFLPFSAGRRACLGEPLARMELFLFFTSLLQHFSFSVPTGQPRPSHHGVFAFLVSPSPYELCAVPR
Sequence of hERG Channel (Q12809 whole entry): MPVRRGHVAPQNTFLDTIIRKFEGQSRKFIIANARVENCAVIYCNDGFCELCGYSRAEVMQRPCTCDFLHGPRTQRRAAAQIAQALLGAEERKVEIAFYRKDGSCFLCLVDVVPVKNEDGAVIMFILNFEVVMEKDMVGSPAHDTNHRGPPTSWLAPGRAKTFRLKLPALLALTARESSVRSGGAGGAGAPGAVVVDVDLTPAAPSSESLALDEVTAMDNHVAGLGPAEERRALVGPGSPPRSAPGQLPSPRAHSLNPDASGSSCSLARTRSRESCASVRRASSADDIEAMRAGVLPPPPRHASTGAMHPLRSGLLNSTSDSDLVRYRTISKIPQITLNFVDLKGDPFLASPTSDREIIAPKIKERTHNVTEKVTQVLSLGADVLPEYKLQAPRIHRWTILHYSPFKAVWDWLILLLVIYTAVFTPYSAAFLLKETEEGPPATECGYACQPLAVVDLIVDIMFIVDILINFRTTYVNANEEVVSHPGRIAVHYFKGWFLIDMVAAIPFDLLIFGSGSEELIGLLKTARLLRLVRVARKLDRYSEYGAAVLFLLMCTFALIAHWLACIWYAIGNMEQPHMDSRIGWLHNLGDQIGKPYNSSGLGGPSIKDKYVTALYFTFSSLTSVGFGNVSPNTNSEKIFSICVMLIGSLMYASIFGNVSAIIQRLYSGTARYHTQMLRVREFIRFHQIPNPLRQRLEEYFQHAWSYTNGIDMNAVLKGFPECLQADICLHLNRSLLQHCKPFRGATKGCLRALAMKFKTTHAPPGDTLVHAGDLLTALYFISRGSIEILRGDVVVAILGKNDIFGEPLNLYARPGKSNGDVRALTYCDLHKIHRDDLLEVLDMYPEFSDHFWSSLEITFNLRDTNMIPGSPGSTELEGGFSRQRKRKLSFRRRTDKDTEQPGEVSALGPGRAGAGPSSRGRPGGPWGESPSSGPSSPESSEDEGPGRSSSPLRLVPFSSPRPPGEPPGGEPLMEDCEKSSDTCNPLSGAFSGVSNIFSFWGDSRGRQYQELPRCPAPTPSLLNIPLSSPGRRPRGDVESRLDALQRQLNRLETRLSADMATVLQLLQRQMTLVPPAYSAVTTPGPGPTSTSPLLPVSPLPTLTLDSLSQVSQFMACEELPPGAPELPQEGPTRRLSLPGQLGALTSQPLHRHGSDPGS
Sequence of CYP450 2C9 (P11712 whole entry): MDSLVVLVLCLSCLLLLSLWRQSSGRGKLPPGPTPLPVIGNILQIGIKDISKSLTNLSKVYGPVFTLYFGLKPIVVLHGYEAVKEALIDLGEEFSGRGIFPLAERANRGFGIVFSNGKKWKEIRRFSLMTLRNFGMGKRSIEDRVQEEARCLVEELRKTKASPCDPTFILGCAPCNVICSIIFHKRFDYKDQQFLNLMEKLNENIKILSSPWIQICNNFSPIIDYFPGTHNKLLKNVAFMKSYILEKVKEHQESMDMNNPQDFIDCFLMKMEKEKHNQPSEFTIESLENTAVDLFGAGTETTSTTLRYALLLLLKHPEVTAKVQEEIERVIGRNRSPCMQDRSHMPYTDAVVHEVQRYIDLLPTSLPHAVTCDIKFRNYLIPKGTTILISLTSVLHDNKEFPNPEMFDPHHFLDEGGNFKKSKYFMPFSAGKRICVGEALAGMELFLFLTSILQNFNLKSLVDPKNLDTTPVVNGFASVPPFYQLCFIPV

On to `CNS(=O)(=O)Nc1cccc(Cc2c(C)c3ccc(OC(=O)N(C)C)cc3oc2=O)c1F` [Compound 7], for which the “Beagle Dog (% Reamining @2 hour)” value in data set [1] came out at 99.8%. Further, the “Human (% Reamining @2 hour)” value in data set [2] stood at 88.1%. In addition, the “2C8*” value in data set [3] is recorded as 14.4. For the same compound, the midpoint of inhibition in data set [4], the IC50, lay at 28.6 µM. Besides, in data set [5], the “CD-1 Mouse (% Reamining @1 hour)” value worked out at 29.6%. Further, the “2D6*” value in [6] is reported as −7.4. The “2C9*” value in [7] is listed as 33.8. For the same compound, in data set [8], the “2B6*” value is reported as 28.5. Besides, the “Beagle Dog (% Reamining @1 hour)” value in [9] came to 57.0%. For the same compound, the “1A2*” value in [10] worked out at 0.3. Further, the “3A4*” value in data set [11] (substrate midazolam) was found to be 29.9. Also, in [11] (substrate testosterone), the “3A4^” value was 59.7. Also, the “Human (% Reamining @1 hour)” value in [12] is 61.1%. The “CD-1 Mouse (% Reamining @2 hour)” value in [13] was 56.5%. In data set [14], the “2C19*” value came out at 11.6.

In the case of `CNS(=O)(=O)Nc1cccc(Cc2c(CNC(=O)OCCO)c3ccc(OC(=O)N(C)C)cc3oc2=O)c1F` [Compound 106], the activity at 10 µM in data set [15] amounted to 27.9%. The “pERK: total ERK (% relative to vehicle)” value in [16] is listed as 27.88%.

Turning to `CNS(=O)(=O)Nc1cccc(Cc2c(CN3CCNCC3)c3cc(F)c(OC(=O)N(C)C)cc3oc2=O)c1F` [Compound 134], the activity at 0.1 µM in [17] stood at 26.9%. Also, the activity at 0.01 µM in data set [15] was 33.1%. Also, in [16], the activity at 10 µM stood at 23.4%.

As to `CNS(=O)(=O)Nc1cccc(Cc2c(CNC(=O)OCCO)c3ccc(OC(=O)N(C)C)cc3oc2=O)c1F` [Compound 185], the “pERK: total ERK (% relative to vehicle)” value in data set [16] is reported as 7.39%.

For the compound `CNS(=O)(=O)Nc1cccc(Cc2c(CNCC(=O)N3CCNCC3)c3ccc(OC(=O)N(C)C)cc3oc2=O)c1F` [Compound 191], the activity at 0.01 µM in data set [15] amounted to 131%. Besides, the activity at 10 µM in data set [15] was found to be 8.6%; in data set [16] it was 7.34%.
